The values that follow come from PubChem BioAssay (NCI).

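Test compounds were applied to cells in 96-well plates for 48 hours at 5 doses. GI50 is the concentration that inhibits growth by half. TGI denotes the concentration required for complete inhibition of growth.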

Test systems include SNB-19 CNS; HT29 colon; U251 CNS; M14 melanoma; SK-MEL-28 melanoma; DLD-1 colon; SK-MEL-5 melanoma; T-47D breast; HS 578T breast.
Test in all cases: NCI tumour cell line growth inhibition, 48 h

With `CC1CCC2c3c([nH]c4ccccc34)C3C(=O)N(c4ccccc4)C(=O)C3C2C1` (stereo not given), the GI50 was 69.2 µM in the assay with SNB-19 CNS, 37.5 µM with U251 CNS and 160 µM in the assay with M14 melanoma. Further, the TGI with SNB-19 CNS, in the assay on HT29 colon, in the assay with U251 CNS, in the assay on M14 melanoma, in the assay on SK-MEL-28 melanoma and with DLD-1 colon was > 250 µM throughout.
For the molecule `CC(=O)c1c(O)c2c([nH]c1=O)CCCC2`, the TGI was 33.9 µM in the assay with SNB-19 CNS; > 100 µM with HT29 colon; 60.9 µM in the assay on U251 CNS; > 100 µM in the assay with M14 melanoma; > 100 µM with SK-MEL-28 melanoma; > 100 µM in the assay with DLD-1 colon.
For the molecule `O=C(O)C1=C(C(=O)O)Oc2ccccc2O1`, the TGI in the assay on SNB-19 CNS, with HT29 colon, with U251 CNS, in the assay on M14 melanoma, with SK-MEL-28 melanoma and in the assay with DLD-1 colon was > 100 µM each time.
In the case of `Nc1nc(-c2ccccc2)cc(-c2cc(Cl)ccc2O)n1`, the TGI in the assay with SNB-19 CNS, in the assay on HT29 colon, with U251 CNS, with M14 melanoma, with SK-MEL-28 melanoma and in the assay on DLD-1 colon was > 100 µM in each case.
As for `CC(C)=CC(=O)CC(=O)C(=O)NCCNC(=O)C(=O)CC(=O)C=C(C)C`, the TGI with SNB-19 CNS, in the assay with HT29 colon, with U251 CNS, with M14 melanoma, in the assay with SK-MEL-28 melanoma and in the assay with DLD-1 colon was > 50 µM in each case.
Turning to `Nc1ncnc2sc(Nc3ccccc3)nc12`, the TGI in the assay with SNB-19 CNS, in the assay with HT29 colon, in the assay on U251 CNS, with M14 melanoma, in the assay on SK-MEL-28 melanoma and with DLD-1 colon was > 100 µM in each case.
As for `Cc1csc(CCC(N)C(=O)O)n1` (stereo not given), the TGI with HT29 colon, in the assay with U251 CNS, in the assay on M14 melanoma, in the assay with SK-MEL-28 melanoma, in the assay with DLD-1 colon and with SK-MEL-5 melanoma was > 100 µM each time.
For the molecule `COC(=O)[C@]1(C)CCCC2(C)C3=C(CCC21)CC1(CC3)SCCS1` (stereo not given in full), the TGI with SNB-19 CNS, in the assay on HT29 colon, in the assay with U251 CNS, with M14 melanoma, in the assay with SK-MEL-28 melanoma and in the assay on T-47D breast was > 10 µM throughout. Further, the TGI in the assay on HS 578T breast and in the assay on SK-MEL-5 melanoma was > 10 µM in each case.
For `COC(=O)c1ccc2c(c1)C(=O)c1c-2n(CCCCl)c(=O)c2cc(OC)c(OC)cc12`, the GI50 in the assay on SNB-19 CNS, with HT29 colon, in the assay with U251 CNS, in the assay on M14 melanoma, in the assay on SK-MEL-28 melanoma and in the assay on T-47D breast was > 100 µM in each case. Also, the GI50 in the assay with HS 578T breast and with SK-MEL-5 melanoma was > 100 µM each time. For the same molecule, the TGI in the assay with SNB-19 CNS, in the assay on HT29 colon, in the assay on U251 CNS, in the assay on M14 melanoma, with SK-MEL-28 melanoma and in the assay with T-47D breast was > 100 µM throughout. Further, the TGI with HS 578T breast and in the assay on SK-MEL-5 melanoma was > 100 µM each time.
For `OC1CSCCSCCCSCCSC1`, the TGI with SNB-19 CNS, in the assay on HT29 colon, in the assay on U251 CNS, in the assay with M14 melanoma, in the assay on SK-MEL-28 melanoma and in the assay with T-47D breast was > 100 µM throughout. Moreover, the TGI in the assay on HS 578T breast and in the assay on SK-MEL-5 melanoma was > 100 µM in each case.
Regarding `CCOC(=O)c1cc2cc(OCc3ccccc3)ccc2[nH]1`, the GI50 in the assay on SNB-19 CNS, with HT29 colon, with U251 CNS, with M14 melanoma, in the assay with SK-MEL-28 melanoma and in the assay with T-47D breast was > 100 µM throughout. The GI50 was 49.6 µM in the assay on HS 578T breast and > 100 µM in the assay with SK-MEL-5 melanoma. Also, the TGI with SNB-19 CNS, with HT29 colon, with U251 CNS, in the assay with M14 melanoma, in the assay with SK-MEL-28 melanoma and in the assay with T-47D breast was > 100 µM in each case. The TGI in the assay on HS 578T breast and with SK-MEL-5 melanoma was > 100 µM each time.
Consider `O=C(O)Cn1ccc(=O)c2c([N+](=O)[O-])cccc21`, for which the TGI with SNB-19 CNS, with HT29 colon, with U251 CNS, in the assay on M14 melanoma, in the assay with SK-MEL-28 melanoma and with T-47D breast was > 100 µM in each case. The TGI in the assay on HS 578T breast and in the assay on SK-MEL-5 melanoma was > 100 µM in each case.
For the molecule `Cc1ccc(C(=O)N2C/C(=C/c3ccccc3)C(=O)/C(=C/c3ccccc3)C2)cc1`, the GI50 in the assay on SNB-19 CNS is 9.51 µM; in the assay with HT29 colon it was 2.03 µM; in the assay on U251 CNS it was 3.28 µM; with M14 melanoma it was 3.85 µM; in the assay on SK-MEL-28 melanoma, 8.98 µM; in the assay on T-47D breast, 15.6 µM. Besides, the GI50 with HS 578T breast was 4.48 µM; in the assay on SK-MEL-5 melanoma, 3.3 µM. Besides, the TGI was > 100 µM with SNB-19 CNS; 7 µM with HT29 colon; > 100 µM in the assay on U251 CNS; > 92.1 µM in the assay with M14 melanoma; 68.9 µM in the assay on SK-MEL-28 melanoma; > 100 µM with T-47D breast. For the same molecule, the TGI in the assay on HS 578T breast was 50.7 µM; in the assay on SK-MEL-5 melanoma it was > 31.6 µM.
Regarding `COc1cc(OC)c(/C=C/C(=O)c2c(N)cc(OC)cc2OC)c(OC)c1`, the GI50 with SNB-19 CNS is 0.654 µM; in the assay on HT29 colon it was 3.3 µM; with U251 CNS it was 0.504 µM; in the assay on M14 melanoma it was 0.349 µM; in the assay on SK-MEL-28 melanoma, 2.18 µM; in the assay with T-47D breast, 0.478 µM. Moreover, the GI50 was 2.42 µM with HS 578T breast and 0.332 µM in the assay on SK-MEL-5 melanoma. The TGI was > 100 µM in the assay on SNB-19 CNS; 14.6 µM in the assay on HT29 colon; > 100 µM in the assay with U251 CNS; > 100 µM in the assay with M14 melanoma; > 100 µM with SK-MEL-28 melanoma; > 100 µM in the assay with T-47D breast. The TGI in the assay on HS 578T breast was > 82 µM; in the assay with SK-MEL-5 melanoma, > 100 µM.
On to `C=CC[PH+](c1ccccc1)c1ccccc1.C=CC[PH+](c1ccccc1)c1ccccc1.[Pt+2].[S-]c1ncccn1.[S-]c1ncccn1`, for which the GI50 with SNB-19 CNS is 58.9 µM; with HT29 colon, 13.5 µM; in the assay on U251 CNS, 23.4 µM; with M14 melanoma, 5.67 µM; with SK-MEL-28 melanoma, 16.4 µM; in the assay with T-47D breast, 3.71 µM. Moreover, the results for the GI50 with HS 578T breast and in the assay with SK-MEL-5 melanoma were 23 µM and 17.3 µM, respectively. The TGI in the assay on SNB-19 CNS was > 100 µM; with HT29 colon, > 100 µM; in the assay on U251 CNS it was > 100 µM; in the assay on M14 melanoma it was 31.9 µM; with SK-MEL-28 melanoma, 44.5 µM; in the assay on T-47D breast it was 87.2 µM. The figures for the TGI with HS 578T breast and in the assay with SK-MEL-5 melanoma were > 100 µM and 38.5 µM, respectively.
Turning to `CCC1=C(c2ccc(OC)cc2)CC[C@]2(CCNC2=O)[C@@H]1C`, the TGI in the assay on SNB-19 CNS was > 100 µM; in the assay with HT29 colon, 59.6 µM; with U251 CNS, 86.4 µM; with M14 melanoma, 62.7 µM; with SK-MEL-28 melanoma it was 74.1 µM; in the assay with T-47D breast it was > 91.1 µM. In addition, the TGI in the assay on HS 578T breast was 76.2 µM; with SK-MEL-5 melanoma it was 31.1 µM.
`O=C(/C=C/c1cccc(Oc2ccc(Cl)cc2)c1)c1ccccc1`: the GI50 was 35.3 µM in the assay on SNB-19 CNS; 26.2 µM in the assay on HT29 colon; 21.1 µM in the assay with U251 CNS; 53.1 µM with M14 melanoma; 29.7 µM with SK-MEL-28 melanoma; 46.3 µM in the assay on T-47D breast. The GI50 was 109 µM in the assay on HS 578T breast and 36 µM in the assay with SK-MEL-5 melanoma. The TGI in the assay with SNB-19 CNS is 111 µM; in the assay on HT29 colon it was 61.6 µM; in the assay with U251 CNS it was 42 µM; in the assay with M14 melanoma, 241 µM; with SK-MEL-28 melanoma, 107 µM; with T-47D breast it was 235 µM. Further, the TGI worked out at 628 µM with HS 578T breast and 127 µM with SK-MEL-5 melanoma.
In the case of `CCN(CC)Cc1cc(Nc2cc(C(F)(F)F)c(C#N)c3nc4ccccc4n23)ccc1O`, the GI50 with SNB-19 CNS is 4.39 µM; in the assay with HT29 colon it was 2.5 µM; in the assay with U251 CNS, 1.5 µM; in the assay with M14 melanoma it was 2.73 µM; in the assay with SK-MEL-28 melanoma, 2.69 µM; with T-47D breast, 0.452 µM. Besides, the GI50 in the assay with HS 578T breast is 2.39 µM; in the assay on SK-MEL-5 melanoma, 0.271 µM. Besides, the TGI turned out to be 36.2 µM with SNB-19 CNS; 12.2 µM in the assay on HT29 colon; 6.47 µM in the assay with U251 CNS; 13.9 µM in the assay with M14 melanoma; 17.4 µM in the assay with SK-MEL-28 melanoma; 3.65 µM in the assay on T-47D breast. Also, the values for the TGI in the assay with HS 578T breast and in the assay on SK-MEL-5 melanoma were 12.1 µM and 1.66 µM, respectively.
For the molecule `COC(=O)C1=Nc2ccc(F)cc2/C1=C/c1sc(=S)[nH]c1O`, the GI50 in the assay on SNB-19 CNS is 0.179 µM; in the assay on HT29 colon it was 0.559 µM; in the assay with U251 CNS it was 0.0838 µM; in the assay on M14 melanoma it was 0.0543 µM; in the assay on SK-MEL-28 melanoma, 1.06 µM; in the assay on T-47D breast, 4.41 µM. Moreover, the GI50 was 0.0518 µM in the assay on HS 578T breast and 0.131 µM with SK-MEL-5 melanoma. Further, the TGI was > 52.9 µM in the assay with SNB-19 CNS; 11.9 µM in the assay with HT29 colon; 14.2 µM in the assay on U251 CNS; > 100 µM in the assay with M14 melanoma; > 83.5 µM in the assay on SK-MEL-28 melanoma; > 100 µM with T-47D breast. The TGI was determined as 21.6 µM in the assay with HS 578T breast and 0.745 µM with SK-MEL-5 melanoma.
